Converted amounts (≈) assume the structure as drawn.
Columns and labels:
[1] = Upregulation of BAX expression in human HNO 97 cell line assessed as fold change by sandwich ELISA analysis; type: functional
A549 = assay: Growth inhibition of human A549 cells assessed as reduction in cell viability at 100 ug/ml by SRB colorimetric assay relative to control; type: functional; conditions: read-out: GI
HNO 97 cell line [2] = assay: Induction of cell cycle arrest in human HNO 97 cell line assessed as increase in cell level at G2-M phase by flow cytometry analysis (reference value: 0.66%); type: functional
[3] = Upregulation of p53 expression in human HNO 97 cell line assessed as fold change by sandwich ELISA analysis; type: functional
HNO 97 cell line [4] = assay: Induction of cell cycle arrest in human HNO 97 cell line assessed as increase in cell level at S phase by flow cytometry analysis (reference value: 23.37%); type: functional
HNO 97 cell line [5] = assay: Antioxidant activity against human HNO 97 cell line assessed as increase in GSH level measured after 48 hrs by Ellmans method relative to control; type: functional
[6] = Growth inhibition of human Oral epithelial cell assessed as reduction in cell viability at 100 ug/ml by SRB colorimetric assay relative to control; type: toxicity, cell-based; conditions: oral epithelial cells, at 100 µg/mL, read-out: GI
NCI-H460 = assay: Growth inhibition of human NCI-H460 cells assessed as reduction in cell viability at 100 ug/ml by SRB colorimetric assay relative to control; type: functional; conditions: read-out: GI
HCT-116 = assay: Growth inhibition of human HCT-116 cells assessed as reduction in cell viability at 100 ug/ml by SRB colorimetric assay relative to control; type: functional; conditions: read-out: GI
MCF7 = assay: Growth inhibition of human MCF7 cells assessed as reduction in cell viability at 100 ug/ml by SRB colorimetric assay relative to control; type: functional; conditions: read-out: GI
PC-3 = assay: Growth inhibition of human PC-3 cells assessed as reduction in cell viability at 100 ug/ml by SRB colorimetric assay relative to control; type: functional; conditions: read-out: GI
HNO 97 cell line [7] = assay: Induction of apoptosis in human HNO 97 cell line assessed as increase in late apoptotic cells by Annexin-V/PI staining based analysis (reference value: 0.12%); type: functional
HepG2 [8] = assay: Growth inhibition of human HepG2 cells assessed as reduction in cell viability at 100 ug/ml by SRB colorimetric assay relative to control; type: functional; conditions: read-out: GI
HNO 97 cell line [9] = assay: Growth inhibition of human HNO 97 cell line assessed as reduction in cell viability by SRB colorimetric assay; type: functional, cell-based
HepG2 [10] = assay: Growth inhibition of human HepG2 cell line assessed as reduction in cell viability by SRB colorimetric assay; type: functional, cell-based
HNO 97 cell line [11] = assay: Growth inhibition of human HNO 97 cell line assessed as reduction in cell viability at 100 ug/ml by SRB colorimetric assay relative to control; type: functional; conditions: read-out: GI
MG-63 = assay: Growth inhibition of human MG-63 cells assessed as reduction in cell viability at 100 ug/ml by SRB colorimetric assay relative to control; type: functional; conditions: read-out: GI
HNO 97 cell line [12] = assay: Induction of apoptosis in human HNO 97 cell line assessed as increase in early apoptotic cells by Annexin-V/PI staining based analysis (reference value: 0.23%); type: functional
Caco-2 = assay: Growth inhibition of human Caco-2 cells assessed as reduction in cell viability at 100 ug/ml by SRB colorimetric assay relative to control; type: functional; conditions: read-out: GI
[13] = Downregulation of BCL2 expression in human HNO 97 cell line assessed as fold change by sandwich ELISA analysis; type: functional
HNO 97 cell line [14] = assay: Antioxidant activity against human HNO 97 cell line assessed as MDA level measured after 48 hrs relative to control; type: functional
HNO 97 cell line [15] = assay: Antioxidant activity against human HNO 97 cell line assessed as NO level measured after 48 hrs relative to control; type: functional
BT-474 = assay: Growth inhibition of human BT-474 cells assessed as reduction in cell viability at 100 ug/ml by SRB colorimetric assay relative to control; type: functional; conditions: read-out: GI
[16] = Downregulation of IL-6 expression in human HNO 97 cell line assessed as fold change by sandwich ELISA analysis; type: functional
MDA-MB-231 [17] = assay: Growth inhibition of human MDA-MB-231 cells assessed as reduction in cell viability at 100 ug/ml by SRB colorimetric assay relative to control; type: functional; conditions: read-out: GI
[18] = target: DNA topoisomerase 2-beta (Homo sapiens) (UniProt Q02880); assay: Inhibition of human DNA topoisomerase 2-beta by ELISA method relative to control; conditions: concentration not given here
A-375 = assay: Growth inhibition of human A-375 cells assessed as reduction in cell viability at 100 ug/ml by SRB colorimetric assay relative to control; type: functional; conditions: read-out: GI
MDA-MB-231 [19] = assay: Growth inhibition of human MDA-MB-231 cell line assessed as reduction in cell viability by SRB colorimetric assay; type: functional, cell-based
Huh-7 = assay: Growth inhibition of human Huh-7 cells assessed as reduction in cell viability at 100 ug/ml by SRB colorimetric assay relative to control; type: functional; conditions: read-out: GI
[20] = target: T1, DNA topoisomerase 2-alpha (Homo sapiens, UniProt P11388); assay: Inhibition of human DNA topoisomerase 2alpha
HL-60 = assay: Antiproliferative activity against human HL-60 cells; type: functional, cell-based
Calf thymus DNA = assay: Displacement of methyl green from calf thymus DNA assessed as DNA intercalation measured after 24 hrs; type: nucleic-acid assay, Bos taurus
[21] = target: T1, DNA topoisomerase 2-alpha; assay: Inhibition of human DNA topoisomerase 2alpha using supercoiled pHot1 DNA as substrate incubated for 30 mins

Chain of DNA topoisomerase 2-beta (Homo sapiens) (Q02880 whole entry): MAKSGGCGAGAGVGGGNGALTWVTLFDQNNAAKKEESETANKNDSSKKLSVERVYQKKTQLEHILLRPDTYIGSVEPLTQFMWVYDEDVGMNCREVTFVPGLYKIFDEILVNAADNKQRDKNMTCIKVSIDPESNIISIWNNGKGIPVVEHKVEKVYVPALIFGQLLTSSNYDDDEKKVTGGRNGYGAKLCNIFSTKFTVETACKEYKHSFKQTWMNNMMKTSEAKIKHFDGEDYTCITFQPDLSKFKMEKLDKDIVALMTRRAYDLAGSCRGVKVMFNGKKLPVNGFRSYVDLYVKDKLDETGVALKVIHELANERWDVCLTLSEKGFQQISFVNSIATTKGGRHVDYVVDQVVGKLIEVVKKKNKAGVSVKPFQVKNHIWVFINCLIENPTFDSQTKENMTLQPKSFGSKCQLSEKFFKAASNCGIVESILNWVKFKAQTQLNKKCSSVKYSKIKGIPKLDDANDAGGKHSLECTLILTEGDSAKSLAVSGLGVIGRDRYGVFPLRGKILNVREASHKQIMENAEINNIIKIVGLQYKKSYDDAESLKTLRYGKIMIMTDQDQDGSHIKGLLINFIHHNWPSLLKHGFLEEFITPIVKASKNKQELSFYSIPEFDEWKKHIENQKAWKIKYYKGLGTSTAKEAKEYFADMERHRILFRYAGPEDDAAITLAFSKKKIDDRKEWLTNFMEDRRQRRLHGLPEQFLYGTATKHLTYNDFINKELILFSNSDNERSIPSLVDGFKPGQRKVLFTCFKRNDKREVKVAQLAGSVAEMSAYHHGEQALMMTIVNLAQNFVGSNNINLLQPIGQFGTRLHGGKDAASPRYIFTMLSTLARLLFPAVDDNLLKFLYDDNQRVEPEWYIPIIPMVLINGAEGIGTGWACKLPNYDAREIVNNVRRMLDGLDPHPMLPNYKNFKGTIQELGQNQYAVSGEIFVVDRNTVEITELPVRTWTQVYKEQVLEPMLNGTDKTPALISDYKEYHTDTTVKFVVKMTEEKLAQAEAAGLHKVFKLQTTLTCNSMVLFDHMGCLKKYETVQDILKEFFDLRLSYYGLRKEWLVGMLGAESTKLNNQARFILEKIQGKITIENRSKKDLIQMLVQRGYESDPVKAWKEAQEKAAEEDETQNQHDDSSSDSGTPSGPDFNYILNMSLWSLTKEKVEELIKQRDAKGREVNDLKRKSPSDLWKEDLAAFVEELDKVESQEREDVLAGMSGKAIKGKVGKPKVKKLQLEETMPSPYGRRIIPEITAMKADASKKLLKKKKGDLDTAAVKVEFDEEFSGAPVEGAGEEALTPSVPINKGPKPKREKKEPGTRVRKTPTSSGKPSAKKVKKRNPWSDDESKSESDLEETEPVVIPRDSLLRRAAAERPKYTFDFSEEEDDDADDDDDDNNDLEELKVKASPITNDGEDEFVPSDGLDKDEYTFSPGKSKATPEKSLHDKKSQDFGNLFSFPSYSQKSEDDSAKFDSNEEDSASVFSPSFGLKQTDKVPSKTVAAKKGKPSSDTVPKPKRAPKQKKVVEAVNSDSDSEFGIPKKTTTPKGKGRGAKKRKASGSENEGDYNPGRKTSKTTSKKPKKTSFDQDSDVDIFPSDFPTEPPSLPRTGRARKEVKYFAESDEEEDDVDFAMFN
T1 sequence (P11388 whole entry): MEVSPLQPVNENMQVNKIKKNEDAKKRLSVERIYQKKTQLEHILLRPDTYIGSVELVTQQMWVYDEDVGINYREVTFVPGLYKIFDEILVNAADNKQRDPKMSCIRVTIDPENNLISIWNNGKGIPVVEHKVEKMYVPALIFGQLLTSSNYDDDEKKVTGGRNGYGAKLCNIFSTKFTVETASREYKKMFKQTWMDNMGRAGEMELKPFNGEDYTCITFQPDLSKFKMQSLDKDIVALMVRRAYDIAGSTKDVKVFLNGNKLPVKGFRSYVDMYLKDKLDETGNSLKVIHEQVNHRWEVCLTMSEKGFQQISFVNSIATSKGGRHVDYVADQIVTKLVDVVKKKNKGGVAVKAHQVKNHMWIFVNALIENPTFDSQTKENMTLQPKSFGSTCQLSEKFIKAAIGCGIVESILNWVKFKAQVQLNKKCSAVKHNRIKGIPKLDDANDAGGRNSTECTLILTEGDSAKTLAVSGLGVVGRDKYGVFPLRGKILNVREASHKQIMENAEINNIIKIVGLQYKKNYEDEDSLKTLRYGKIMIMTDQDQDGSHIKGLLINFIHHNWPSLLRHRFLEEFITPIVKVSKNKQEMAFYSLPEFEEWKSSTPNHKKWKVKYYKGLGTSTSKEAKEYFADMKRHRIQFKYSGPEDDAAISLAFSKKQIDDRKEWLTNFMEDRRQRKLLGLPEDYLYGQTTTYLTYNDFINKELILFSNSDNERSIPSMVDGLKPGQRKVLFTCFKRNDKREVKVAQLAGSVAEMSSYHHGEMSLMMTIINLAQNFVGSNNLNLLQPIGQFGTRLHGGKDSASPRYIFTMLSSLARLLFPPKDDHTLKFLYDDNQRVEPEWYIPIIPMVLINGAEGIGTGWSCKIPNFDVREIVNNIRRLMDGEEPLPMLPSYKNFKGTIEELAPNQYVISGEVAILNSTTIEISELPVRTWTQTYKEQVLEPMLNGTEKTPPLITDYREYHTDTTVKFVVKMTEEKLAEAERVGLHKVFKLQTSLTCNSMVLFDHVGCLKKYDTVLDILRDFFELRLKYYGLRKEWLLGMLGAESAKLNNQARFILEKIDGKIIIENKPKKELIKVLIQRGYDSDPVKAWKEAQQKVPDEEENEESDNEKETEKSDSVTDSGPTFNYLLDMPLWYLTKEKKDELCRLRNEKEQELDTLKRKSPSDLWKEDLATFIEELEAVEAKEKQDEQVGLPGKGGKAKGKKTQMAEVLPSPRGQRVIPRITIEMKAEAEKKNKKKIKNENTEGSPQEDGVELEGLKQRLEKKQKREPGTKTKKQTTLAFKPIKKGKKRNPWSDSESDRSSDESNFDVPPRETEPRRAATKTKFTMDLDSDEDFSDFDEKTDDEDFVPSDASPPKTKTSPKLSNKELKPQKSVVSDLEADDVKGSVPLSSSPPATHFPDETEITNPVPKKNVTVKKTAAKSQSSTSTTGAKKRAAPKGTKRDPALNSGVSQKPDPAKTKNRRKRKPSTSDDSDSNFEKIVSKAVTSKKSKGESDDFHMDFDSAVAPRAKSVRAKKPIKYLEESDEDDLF

Structure (SMILES) | fold change (FC) [1] | inhibition of growth at 100 µg/mL (A549) | Activity (HNO 97 cell line [2]) | inhibition at 100 ug/ml [6] | inhibition of growth at 100 µg/mL (NCI-H460) | inhibition of growth at 100 µg/mL (HCT-116) | inhibition of growth at 100 µg/mL (MCF7) | inhibition of growth at 100 µg/mL (PC-3) | inhibition of growth at 100 µg/mL (HepG2 [8]) | IC50 (HNO 97 cell line [9]) | IC50 (HepG2 [10]) | inhibition of growth at 100 µg/mL (HNO 97 cell line [11]) | inhibition of growth at 100 µg/mL (MG-63) | inhibition of growth at 100 µg/mL (Caco-2) | inhibition of growth at 100 µg/mL (BT-474) | inhibition of growth at 100 µg/mL (MDA-MB-231 [17]) | inhibition [18] | inhibition of growth at 100 µg/mL (A-375) | IC50 (MDA-MB-231 [19]) | inhibition of growth at 100 µg/mL (Huh-7) | also measured
NC1=Nc2nc3ccccc3n2C(c2ccc(Cl)cc2Cl)N1 (stereo unspecified) | 2.46 | 69% | 27.94% | 62.8% | 71.8% | 51.8% | 72.6% | 74.3% | 76.5% | 4 µg/mL (≈ 12 µM) | 9 µg/mL (≈ 27.1 µM) | 82.6% | 66.7% | 63.4% | 52.4% | 71.5% | 87.9% | 67.2% | 10 µg/mL (≈ 30.1 µM) | 73.6% | fold change (FC) [3]: 2.32; Activity (HNO 97 cell line [4]): 46.4%; Activity (HNO 97 cell line [5]): 177.01%; Activity (HNO 97 cell line [7]): 1.42%; Activity (HNO 97 cell line [12]): 4.99%; fold change (FC) [13]: 0.15; Activity (HNO 97 cell line [14]): 46.33%; Activity (HNO 97 cell line [15]): 56.5%; fold change (FC) [16]: 0.64
COc1cccc2c1C(=O)c1c(O)c3c(c(O)c1C2=O)C[C@@](O)(C(=O)CO)C[C@@H]3O[C@H]1C[C@H](N)[C@H](O)[C@H](C)O1 [DOXORUBICIN] | – | 49% | – | 70.4% | 73.6% | 71.3% | 69% | 68% | 59.3% | 9 µg/mL (≈ 16.6 µM) | 4.6 µg/mL (≈ 8.46 µM) | 80.3% | 69.9% | 80.8% | 44.7% | 78.2% | 86.4% | 64.1% | 8.6 µg/mL (≈ 15.8 µM) | 74.8% | –
O=C(N/N=C/c1ccncc1)c1cccc2c(=O)c3ccccc3[nH]c12 | – | – | – | – | – | – | – | – | – | – | – | – | – | – | – | – | – | – | – | – | IC50 [20]: 2.26 µM; IC50 (HL-60): 0.48 µM
O=C(NNC(=O)c1ccc(Nc2nc3ccccc3n3cnnc23)cc1)NC1CCCCC1 | – | – | – | – | – | – | – | – | – | – | – | – | – | – | – | – | – | – | – | – | IC50 (Calf thymus DNA): 25.3 µM
CCCc1nnc2c3ccccc3c(N/N=C/c3ccc([N+](=O)[O-])cc3)nn12 | – | – | – | – | – | – | – | – | – | – | – | – | – | – | – | – | – | – | – | – | IC50 (Calf thymus DNA): 26.2 µM; IC50 [21]: 7.02 µM
NC1=Nc2nc3ccccc3n2C(c2ccc(Cl)c(Cl)c2)N1 (stereo unspecified) | 2.39 | 67.5% | 4.99% | 41.6% | 73.4% | 51.1% | 62% | 75.5% | 63.6% | 3 µg/mL (≈ 9.03 µM) | 4.8 µg/mL (≈ 14.4 µM) | 78% | 66.4% | 50.7% | 57.7% | 75% | 81.7% | 63% | 4 µg/mL (≈ 12 µM) | 72.5% | fold change (FC) [3]: 2.16; Activity (HNO 97 cell line [4]): 58.07%; Activity (HNO 97 cell line [5]): 189.32%; Activity (HNO 97 cell line [7]): 0.9%; Activity (HNO 97 cell line [12]): 9.27%; fold change (FC) [13]: 0.24; Activity (HNO 97 cell line [14]): 51.93%; Activity (HNO 97 cell line [15]): 62.06%; fold change (FC) [16]: 0.67
